According to patent publication US12133920B2, “Stabilization of beta-hydroxyisovaleric acid formulations in soft gel capsules” (TSI Group Ltd., priority 2016, dated 2024):

Test: Accelerated stability test: HMB-FA contents per capsule
Assay type: physicochemical
Settings: for HMB FA contents: 40±2° C., 75% RH±5% RH, sealed HDPE bottles, HMB-FA 75 wt %, betaine anhydrous 18 wt %, purified water 7 wt %
Experimental: Accelerated Stability Test: To assess how the quality and purity of the instantly disclosed composition would vary with time under the influence of environmental factors of temperature and humidity, accelerated stability tests were performed. Tests were carried out according to guidelines provided in Stability Testing of New Drug Substances and Products issued by ICH and Stability testing guideline of dietary supplements by NSF. NSF Stability Testing Working Group, Stability testing guideline of dietary supplements, January 2011. […] The gel capsule composition was HMB-FA 75 wt %; betaine anhydrous 18 wt % and purified water 7 wt %. Samples were repacked in HDPE bottles (size: 1 80 ct, 300 rnl) then sealed with aluminum foil. Samples were exposed to high temperature and high humidity (40±2° C.; 75% RH±5% RH) and evaluated at 1, 2, and 3 months.

HMB FA contents (0 months): 519 mg/capsule
HMB FA contents (1 month): 494.4 mg/capsule
HMB FA contents (2 months): 484.8 mg/capsule
HMB FA contents (3 months): 491.8 mg/capsule
stability of HMB FA (overall) (high heat high humidity environments, periods exceeding three months): substantially stable
Compound: CC(C)(O)CC(=O)O [HMB FA, Beta-hydroxyisovaleric acid]
